# From PubChem BioAssay (NCI)
#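 Protocol summary: plate cells (96-well), add compound at 5 concentrations, incubate 48 h, interpolate endpoints linearly. GI50 marks 50% less growth. The concentration for full growth arrest is given as TGI.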
# Key:
# Experiment in all cases: NCI tumour cell line growth inhibition, 48 h
# A549 NSCLC = test system: A549 NSCLC
# ACHN renal = test system: ACHN renal
# HS 578T breast = test system: HS 578T breast
# HT29 colon = test system: HT29 colon
# MALME-3M melanoma = test system: MALME-3M melanoma
# NCI/ADR-RES ovarian = test system: NCI/ADR-RES ovarian
# PC-3 prostate = test system: PC-3 prostate
# SK-MEL-5 melanoma = test system: SK-MEL-5 melanoma
# UACC-62 melanoma = test system: UACC-62 melanoma
# HOP-62 NSCLC = test system: HOP-62 NSCLC
SMILES,GI50 (A549 NSCLC),TGI (A549 NSCLC),GI50 (ACHN renal),TGI (ACHN renal),GI50 (HS 578T breast),TGI (HS 578T breast),GI50 (HT29 colon),TGI (HT29 colon),GI50 (MALME-3M melanoma),TGI (MALME-3M melanoma),GI50 (NCI/ADR-RES ovarian),TGI (NCI/ADR-RES ovarian),GI50 (PC-3 prostate),TGI (PC-3 prostate),GI50 (SK-MEL-5 melanoma),TGI (SK-MEL-5 melanoma),GI50 (UACC-62 melanoma),TGI (UACC-62 melanoma),GI50 (HOP-62 NSCLC),TGI (HOP-62 NSCLC)
COc1ccc(Cn2cnc3cc(C(=O)Nc4cccc5ccccc45)ccc32)c(OC)c1,0.0644 µM,> 100 µM,0.078 µM,> 100 µM,0.0351 µM,> 100 µM,0.0345 µM,5.18 µM,0.0614 µM,> 100 µM,0.042 µM,> 100 µM,0.051 µM,> 100 µM,0.0502 µM,6.71 µM,0.0531 µM,> 66.7 µM,–,–
c1ccc2c(-c3nc4ccccc4[nH]3)cccc2c1,4.36 µM,> 100 µM,7.97 µM,> 100 µM,2.49 µM,17.2 µM,2.68 µM,11.8 µM,3.81 µM,34.9 µM,1.8 µM,> 100 µM,3.88 µM,> 100 µM,4.28 µM,72.4 µM,1.99 µM,27.3 µM,5.35 µM,30.3 µM
O=C(CC/C(CC(=O)c1ccc(Cl)cc1)=N/O)Nc1ccc(Cl)c(Cl)c1,–,> 100 µM,–,> 100 µM,–,–,–,> 100 µM,–,> 100 µM,–,–,–,–,–,> 100 µM,–,> 100 µM,–,> 100 µM
COc1cc(OC)c2cc(C(=O)O)c(=O)oc2c1,> 100 µM,> 100 µM,> 100 µM,> 100 µM,–,> 51.4 µM,> 100 µM,> 100 µM,> 100 µM,> 100 µM,> 100 µM,> 100 µM,> 100 µM,> 100 µM,> 100 µM,> 100 µM,> 71.8 µM,> 100 µM,> 100 µM,> 100 µM
O=C(Nc1ccc(Cl)cc1)c1ccc([N+](=O)[O-])o1,2.64 µM,9.21 µM,1.95 µM,4.07 µM,2.81 µM,18.6 µM,1.34 µM,3.45 µM,2.25 µM,5.21 µM,2.55 µM,11.4 µM,2.35 µM,> 30.3 µM,3.42 µM,13.2 µM,1.46 µM,3.1 µM,1.49 µM,3.27 µM
Cc1ccc(-c2nc3c(C(=O)NCCN(C)C)cccc3[nH]2)cc1,–,34.5 µM,–,28.9 µM,–,–,–,80.1 µM,–,–,–,–,–,–,–,26.6 µM,–,32.5 µM,–,36.1 µM
Oc1ccccc1Nc1nc2ccccc2c2occc12,14.5 µM,27.5 µM,3.9 µM,17 µM,3.9 µM,20.8 µM,–,–,–,–,–,–,10.9 µM,22.8 µM,6.1 µM,19.4 µM,10.3 µM,21.9 µM,7.69 µM,21.7 µM
CN1C(=O)c2cc([N+](=O)[O-])ccc2[C@H]2C(=O)c3cc4c(cc3[C@H]21)OCO4,0.115 µM,1.88 µM,0.0134 µM,0.0463 µM,0.93 µM,> 100 µM,0.179 µM,> 43.2 µM,–,–,0.0684 µM,15.2 µM,0.521 µM,63 µM,0.0534 µM,0.176 µM,0.0356 µM,0.337 µM,0.158 µM,> 100 µM
S=P1(c2ccccc2)Nc2ccc(Cl)cc2N1 (stereo not drawn),–,> 100 µM,–,> 100 µM,–,–,–,> 100 µM,–,> 100 µM,–,–,–,–,–,> 100 µM,–,26.4 µM,–,> 100 µM
N#CCc1ccc(/C(C#N)=C2/OC(=N)C(c3ccc(CC#N)cc3)C2=O)cc1 (stereo not drawn),–,> 100 µM,–,> 100 µM,–,–,–,> 100 µM,–,> 100 µM,–,–,–,–,–,> 100 µM,–,> 100 µM,–,> 100 µM
CCCCCCCCCCCCCC(=O)OC(/C=C/C(C)C)C(O)C(O)C(OC)C(=O)NC1CCCCNC1=O (stereo not drawn),1.12 µM,4.28 µM,4.1 µM,4.76 µM,–,–,4.03 µM,4.51 µM,–,5.36 µM,–,–,–,–,6.53 µM,5.25 µM,4.28 µM,3.74 µM,3.88 µM,6.8 µM
CN(C)CC(C)(C)C(/C=C/c1ccccc1)=N\Nc1ccccc1,–,4.19 µM,–,1.25 µM,–,–,–,27.9 µM,–,26.6 µM,–,–,–,–,–,20.7 µM,–,1.07 µM,–,64.7 µM
Cn1cnc([N+](=O)[O-])c1Sc1nc2cccnc2s1,–,> 100 µM,–,80.6 µM,–,–,–,63.7 µM,–,22 µM,–,–,–,–,–,35.7 µM,–,32 µM,–,> 100 µM
CCOCC(=O)N[C@H]1CCc2cc(OC(=O)COCC)c(OC)c(OC)c2-c2ccc(SC)c(=O)cc21,–,–,0.0831 µM,> 100 µM,–,–,–,> 100 µM,–,> 100 µM,–,5.49 µM,0.0164 µM,–,–,–,–,> 100 µM,–,> 100 µM
COc1ccc(Cn2cc3c(c2-c2ccc(O)cc2)CCc2cnoc2-3)cc1,0.477 µM,18.4 µM,0.956 µM,19.5 µM,0.252 µM,6.62 µM,0.587 µM,4.79 µM,–,–,0.19 µM,0.946 µM,0.653 µM,44.5 µM,0.315 µM,12.6 µM,0.54 µM,17.6 µM,0.49 µM,18.4 µM
Cc1ccc(/C=C/C(=O)c2ccc(N)cc2)c(C)c1,17.6 µM,37.5 µM,1.77 µM,3.2 µM,18.2 µM,80 µM,–,–,1.87 µM,3.57 µM,6.65 µM,> 100 µM,14.6 µM,28.2 µM,9.47 µM,21.6 µM,2.52 µM,7.16 µM,17 µM,38 µM
COC(=O)c1oc2c(O)c(OC)c(Br)cc2c1C,25 µM,74.1 µM,20.2 µM,36.2 µM,33.7 µM,> 100 µM,15.7 µM,30.4 µM,–,–,–,–,21.2 µM,39.7 µM,22.2 µM,43.5 µM,14.7 µM,30.7 µM,23.3 µM,51.4 µM
